From US7745651B2, “Cationic lipids and methods of use” (Protiva Biotherapeutics, Inc., priority 2004, dated 2010)

Key:
[1] = test system: luciferase expression in Neuro2A-G cells (Neuro2A cells stably transfected to express luciferase); assay: In vitro transfection: luciferase gene silencing by SNALP encapsulating anti-luciferase siRNA; type: cell-based; settings: for luciferase expression relative to untreated control: after 48 hours
Procedure: In vitro Transfection: Cells were cultured in MEM (Invitrogen) containing 10% fetal bovine serum (FBS) (CanSera) and 0.25 mg/mL G418 (Invitrogen). Neuro2A-G cells (Neuro2A cells stably transfected to express luciferase [R. E. Kingston. in Current Protocols in Molecular Biology, Vol. 2, pp. 9.1.4-9.1.9, John Wiley & Sons, Inc. (1997)]) were plated at a concentration of 4×10^4 cells per well in 24-well plates and grown overnight. Cells were treated with SNALP at doses of 0.0625-1.0 μg/mL nucleic acid (AntiLuc Active or Mismatch Control) and incubated for 48 hours at 37° C. and 5% CO2. Cells were then washed with PBS and lysed with 200 μL 250 mM sodium phosphate containing 0.1% Triton X-100. The luciferase activity for each well was determined using Luciferase Reagent (Promega) and a standard luciferase protein (Roche). The luminescence for each was measured using a Berthold MicroLumatPlus LB96V plate luminometer. The resulting luciferase activity was then normalized for the amount of protein using the Micro BCA assay kit (Pierce). Luciferase knockdown relative to a control was then determined for each system.
This example describes experiments comparing expression of nucleic acids following in vitro transfection of Neuro2A cells with SNALP comprising: (1) DODAC, DODMA, or DLinDMA; (2) PEG-C-DMA; and (3) an siRNA duplex directed against luciferase encapsulated in the SNALP (i.e., siRNA comprising the following sequence: […] (SEQ ID NO:1) and targeting the DNA sequence complementary to: […] (SEQ ID NO:3)). Neuro2A cells were stably transfected with a plasmid encoding luciferase under the control of the CMV promoter (pLO55). The stably transfected cells were then transfected with SNALP comprising: 15, 20, 25, 30, 35, or 40% of DODAC, DODMA, or DLinDMA; 2% PEG-C-DMA, and an siRNA duplex directed against luciferase encapsulated in the SNALP. Luciferase protein expression was measured 48 hours after transfection with SNALP.
The ability of SNALP containing each of the four cationic lipids (i.e., DSDMA, DODMA, DLinDMA, and DLenDMA) to effect gene silencing in stably transfected Neuro2A cells was evaluated. Neuro2A cells stably transfected to express the luciferase were treated with SNALP containing anti-luciferase siRNA for 48 hours. Gene-silencing efficiency was evaluated by comparing the remaining luciferase activity in these cells to that remaining in cells treated with control SNALP containing mismatch siRNA.

[2] = SNALP particle diameter and polydispersity, Malvern Zetasizer; type: physicochemical; settings: SNALP DSPC:Chol:PEG-C-DMA:Cationic Lipid 20:48:2:30 molar percent; mean of 3 experiments, error is standard deviation
Procedure: (§1) SNALP Preparation: SNALP with a lipid composition of DSPC:Chol:PEG-C-DMA:Cationic Lipid (20:48:2:30 molar percent) were prepared using the spontaneous vesicle formation by ethanol dilution method [Jeffs et al., Pharm. Res. In Press (2005)]. The sample's were diafiltered against 100 mL of PBS (20 wash volumes) using a cross flow ultrafiltration cartridge (Amersham Biosciences, Piscataway, N.J.) and sterile filtered through Acrodisc 0.2 μm Posidyne filters (Pall Corp., Ann Arbor, Mich.). The siRNA concentration of final samples was determined using the RiboGreen assay and a siRNA standard curve. Particle size and polydispersity was determined using a Malvern Instruments Zetasizer 3000HSA (Malvern, UK). Nucleic acid encapsulation was determined using a RiboGreen assay, comparing fluorescence in the presence and absence of Triton X-100. RiboGreen fluorescence was measured using a Varian Eclipse Spectrofluorometer (Varian Inc) with λex=500 nm, λem=525 nm.
(§2) This example sets forth the physical properties of the SNALP formulations described herein. SNALP containing the various cationic lipids were prepared as described and encapsulated RNA and particle size assessed (Table 1 below). […] Polydispersity of all formulations was low, indicating a narrow distribution of particle size. RNA encapsulation in the final particles was 84-85% of the total.
(§3) Percentage Encapsulation was determined using the RiboGreen fluorescence assay to measure the amount of encapsulated nucleic acid relative to the total nucleic acid present. Particle diameter and polydispersity was measured using a Malvern Zetasizer. Values are the mean of 3 separate experiments, the error is standard deviation.

[3] = Nucleic acid encapsulation in SNALP, RiboGreen fluorescence assay; type: physicochemical; settings: SNALP DSPC:Chol:PEG-C-DMA:Cationic Lipid 20:48:2:30 molar percent, siRNA; mean of 3 experiments, error is standard deviation
Procedure: as §1, §2, §3

[4] = TNS assay, apparent pKa of cationic lipid incorporated in SNALP; settings: TNS fluorescence, pH varied from 4.5 to 9.5
Procedure: TNS Assay: 20 μM of SNALP lipid and 6 μM of TNS were mixed in a fluorescence cuvette in 2 mL of 20 mM sodium phosphate, 25 mM citrate, 20 mM ammonium acetate and 150 mM NaCl, at a pH that was varied from 4.5 to 9.5. Fluorescence was determined at each pH using a Varian Eclipse Spectrofluorometer (Varian Inc) with settings of λex=322 nm, λem=431 nm. Fluorescence for each system at the various pH was then normalized to the value at pH 4.5. The pKa values are the point at which 50% of the molecules present are charged. By assuming that minimum fluorescence represents zero charge, and maximum fluorescence represents 100% charge, pKa can be estimated by measuring the pH at the point exactly half way between the values of minimum and maximum charge.
TNS is electrostatically attracted to positively charged membranes. Subsequent adsorption to the lipid membrane results in the immediate environment of the TNS becoming more lipophilic, removing the water molecules that otherwise quench TNS fluorescence. Since TNS is more readily absorbed by positively charged membranes, TNS fluorescence is an indicator of positive membrane surface charge. The surface pKa values of each SNALP formulation were determined by varying the local pH in the presence of TNS.

[5] = SNALP with anti-luciferase siRNA

Structure (SMILES)	knockdown in gene expression (luciferase) versus control SNALP containing mismatch siRNA ([1]; Neuro2A cells stably expressing luciferase, SNALP with anti-luciferase siRNA, 48 hours) [%]	reduction of luciferase expression compared with SNALP comprising DODAC or DODMA ([1]; SNALP with 30% cationic lipid, 2% PEG-C-DMA, anti-luciferase siRNA, 48 hours after transfection)	luciferase expression relative to untreated control [1, 5] [%]	Diameter (nm) [2] [nm]	Polydispersity [2]	% Encapsulation [3] [%]	apparent (surface) pKa of cationic lipid in SNALP [4]
CCCCC/C=C\C/C=C\CCCCCCCCOCC(CN(C)C)OCCCCCCCC/C=C\C/C=C\CCCCC (centres unmarked) [DLinDMA, 1,2-DiLinoleyloxy-N,N-dimethylaminopropane]	80	more effective in reducing luciferase expression	21	140 ± 6	0.11 ± 0.02	84 ± 3	
CCCCCCCCCCCCCCCCCC[N+](C)(C)CCCCCCCCCCCCCCCCCC [DODMA, dioctadecyldimethylammonium]			54	137 ± 4	0.12 ± 0.01	84 ± 1	7.0
